Measurements: ChEMBL document CHEMBL3784937, “Synthesis and biological evaluation of indeno[1,5]naphthyridines as topoisomerase I (TopI) inhibitors with antiproliferative activity” (Eur J Med Chem, 2016)
Activity calls are given as the source filed them. The rule behind the calls is not given here.

How the values were obtained:
[1] = Cytotoxicity against human SKOV3 cells assessed as growth inhibition after 48 hrs by CCK8 assay; assay type: functional, cell-based; settings: SK-OV-3, 48 h
Homo sapiens [2] = species: Homo sapiens; test: Inhibition of human recombinant topoisomerase 1B expressed in Saccharomyces cerevisiae using plasmid DNA as substrate assessed as DNA relaxation at 100 uM preincubated with enzyme for 15 mins followed by substrate addition after 1 min by agarose gel electrophoresis
[3] = Cytotoxicity against human BT20 cells assessed as growth inhibition after 48 hrs by CCK8 assay; assay type: functional, cell-based; settings: BT-20, 48 h
A549 = test: Cytotoxicity against human A549 cells assessed as growth inhibition after 48 hrs by CCK8 assay; assay type: functional, cell-based; settings: A549, 48 h
Homo sapiens [4] = species: Homo sapiens; test: Inhibition of human recombinant topoisomerase 1B expressed in Saccharomyces cerevisiae using plasmid DNA as substrate assessed as DNA relaxation at 50 uM preincubated with enzyme for 15 mins followed by substrate addition after 50 secs by agarose gel electrophoresis
[5] = Inhibition of human recombinant topoisomerase 1B expressed in Saccharomyces cerevisiae using plasmid DNA as substrate assessed as DNA relaxation at 25 uM preincubated with enzyme for 15 mins followed by substrate addition after 50 secs by agarose gel electrophoresis
Homo sapiens [6] = species: Homo sapiens; test: Inhibition of human recombinant topoisomerase 1B expressed in Saccharomyces cerevisiae using plasmid DNA as substrate assessed as DNA relaxation at 100 uM preincubated with enzyme for 15 mins followed by substrate addition after 3 min by agarose gel electrophoresis
Homo sapiens [7] = species: Homo sapiens; test: Inhibition of human recombinant topoisomerase 1B expressed in Saccharomyces cerevisiae using plasmid DNA as substrate assessed as DNA relaxation at 100 uM preincubated with enzyme for 15 mins followed by substrate addition after 15 secs by agarose gel electrophoresis
Homo sapiens [8] = species: Homo sapiens; test: Inhibition of human recombinant topoisomerase 1B expressed in Saccharomyces cerevisiae using plasmid DNA as substrate assessed as DNA relaxation at 100 uM preincubated with substrate for 15 mins followed by enzyme addition after 15 secs to 3 mins by agarose gel electrophoresis
Homo sapiens [9] = species: Homo sapiens; test: Inhibition of human recombinant topoisomerase 1B expressed in Saccharomyces cerevisiae using plasmid DNA as substrate assessed as DNA relaxation at 100 uM after 15 secs to 3 mins by agarose gel electrophoresis

Structure (SMILES) | IC50 [1] | inhibition (Homo sapiens [2]) | IC50 [3] | IC50 (A549) | inhibition (Homo sapiens [4]) | inhibition [5] | inhibition (Homo sapiens [6]) | inhibition (Homo sapiens [7]) | inhibition (Homo sapiens [8]) | inhibition (Homo sapiens [9])
c1ccc(-c2nc3cccnc3c3c2Cc2ccccc2-3)cc1 | 47.9 µM | Active | > 100 µM | > 100 µM | Active | Active | Active | Active | – | –
c1ccc2c(c1)Cc1c(-c3ccncc3)nc3cccnc3c1-2 | 10.5 µM | Active | 32.9 µM | 2.9 µM | – | – | Active | Active | – | –
c1ccc([C@H]2Nc3cccnc3[C@H]3c4ccccc4C[C@H]32)cc1 (relative stereo) | > 100 µM | Active | > 100 µM | 5.3 µM | – | – | Active | Active | – | –
O=[N+]([O-])c1ccc([C@H]2Nc3cccnc3[C@H]3c4ccccc4C[C@H]32)cc1 (relative stereo) | > 100 µM | Active | > 100 µM | 10.5 µM | – | – | Active | Active | – | –
Fc1ccc(-c2nc3cccnc3c3c2Cc2ccccc2-3)cc1F | > 100 µM | Active | > 100 µM | 48.6 µM | – | – | Active | Active | – | –
c1ccc2c(c1)C[C@@H]1[C@H]2c2ncccc2N[C@@H]1c1ccncc1 (relative stereo) | 55.4 µM | Active | 24.4 µM | 10.6 µM | – | – | Active | Active | Active | –
Fc1ccc(-c2nc3cccnc3c3c2Cc2ccccc2-3)c(F)c1 | 6.4 µM | Active | 39.6 µM | 1.7 µM | – | – | Active | Active | – | –
FC(F)(F)c1ccc(-c2nc3cccnc3c3c2Cc2ccccc2-3)cc1 | > 100 µM | Active | > 100 µM | > 100 µM | – | – | Active | Active | – | –
Fc1ccc([C@H]2Nc3cccnc3[C@H]3c4ccccc4C[C@H]32)c(F)c1 (relative stereo) | > 100 µM | Active | 86.4 µM | 6.4 µM | – | – | Active | Active | Active | –
Fc1ccc([C@H]2Nc3cccnc3[C@H]3c4ccccc4C[C@H]32)cc1F (relative stereo) | > 100 µM | Active | > 100 µM | 27.3 µM | – | – | Active | Active | Active | –
FC(F)(F)c1ccc([C@H]2Nc3cccnc3[C@H]3c4ccccc4C[C@H]32)cc1 (relative stereo) | > 100 µM | Active | 63.9 µM | 4.2 µM | Active | Active | Active | Active | – | –
O=C1c2ccccc2-c2c1c(-c1ccccc1)nc1cccnc21 | 1.9 µM | Active | 14.1 µM | 23.7 µM | Active | Active | Active | Active | – | –
Fc1cccc(-c2nc3cccnc3c3c2Cc2ccccc2-3)c1 | > 100 µM | Active | > 100 µM | > 100 µM | Active | Active | Active | Active | – | –
O=C1c2ccccc2-c2c1c(-c1ccc(F)c(F)c1)nc1cccnc21 | > 100 µM | Active | > 100 µM | 20.7 µM | – | – | Active | Active | – | –
O=C1c2ccccc2-c2c1c(-c1ccc(F)cc1F)nc1cccnc21 | > 100 µM | Active | > 100 µM | 34.1 µM | – | – | Active | Active | – | –
Fc1cccc([C@H]2Nc3cccnc3[C@H]3c4ccccc4C[C@H]32)c1 (relative stereo) | > 100 µM | Active | 15.5 µM | 3.5 µM | Active | Active | Active | Active | Active | –
CC[C@@]1(O)C(=O)OCc2c1cc1n(c2=O)Cc2cc3ccccc3nc2-1 [CAMPTOTHECIN] | 0.0055 µM | Active | 0.07 µM | – | Active | – | inactive | Active | – | Active
O=C1c2ccccc2-c2c1c(-c1ccc(C(F)(F)F)cc1)nc1cccnc21 | > 100 µM | Active | > 100 µM | > 100 µM | – | – | Active | Active | – | –
OC1c2ccccc2-c2c1c(-c1ccc(C(F)(F)F)cc1)nc1cccnc21 (stereo unspecified) | > 100 µM | Active | > 100 µM | > 100 µM | Active | Active | Active | Active | – | –
O=C1c2ccccc2-c2c1c(-c1cccc(F)c1)nc1cccnc21 | > 100 µM | Active | > 100 µM | > 100 µM | Active | Active | Active | Active | – | –
O=[N+]([O-])c1ccc(-c2nc3cccnc3c3c2Cc2ccccc2-3)cc1 | 50.8 µM | Active | 61.3 µM | 5.7 µM | – | – | Active | Active | – | –
OC1c2ccccc2-c2c1c(-c1ccccc1)nc1cccnc21 (stereo unspecified) | > 100 µM | Active | > 100 µM | > 100 µM | – | – | Active | Active | – | –
